# Source: patent EP1202975B1, “SUBSTITUTED POLYCYCLIC ARYL AND HETEROARYL PYRAZINONES USEFUL FOR SELECTIVE INHIBITION OF THE COAGULATION CASCADE” (Pharmacia Corporation, priority 1999, dated 2000)
# Like-named read-outs stand apart in the source and are kept apart here.
# Legend:
# Human factor Xa [1] = molecular target: T1, Human factor Xa (Homo sapiens, UniProt P00742); assay: Xa Assay
# TF-VIIa = molecular target: T2, TF-VIIa (Homo sapiens, UniProt P08709); assay: TF-VIIa Assay; assay type: biochemical
# T2 construct: 2nM recombinant human factor VIIa; purchased American Diagnostica, Greenwich CT; host or cells: soluble TF made in house in E. coli
# T2 sequence (P08709 213-466 limits assumed): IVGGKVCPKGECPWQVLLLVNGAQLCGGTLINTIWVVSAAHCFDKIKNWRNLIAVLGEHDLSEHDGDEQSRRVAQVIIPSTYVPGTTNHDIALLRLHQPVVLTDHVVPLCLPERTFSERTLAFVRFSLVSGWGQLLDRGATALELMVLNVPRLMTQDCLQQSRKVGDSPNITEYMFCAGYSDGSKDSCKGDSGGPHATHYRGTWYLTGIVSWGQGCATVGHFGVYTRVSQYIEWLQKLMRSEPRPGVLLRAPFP
# T2 sequence (P08709 61-212 limits assumed): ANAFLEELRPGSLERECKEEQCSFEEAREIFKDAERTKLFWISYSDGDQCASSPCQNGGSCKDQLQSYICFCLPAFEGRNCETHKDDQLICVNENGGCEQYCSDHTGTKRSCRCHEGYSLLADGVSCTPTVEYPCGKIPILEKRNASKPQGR
# T2 sequence (P13726 33-251 partner limits assumed): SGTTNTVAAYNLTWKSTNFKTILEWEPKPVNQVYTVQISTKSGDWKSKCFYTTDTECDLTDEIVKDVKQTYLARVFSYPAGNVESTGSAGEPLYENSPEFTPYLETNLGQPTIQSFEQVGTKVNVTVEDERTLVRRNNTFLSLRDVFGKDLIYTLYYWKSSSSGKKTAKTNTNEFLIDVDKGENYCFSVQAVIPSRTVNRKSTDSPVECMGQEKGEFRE
# Human factor Xa [2] = molecular target: T1, Human factor Xa
# [3] = read-out: IC50 or % Inhibition Factor Xa (30 µM), cells given as a plain number (IC50)
# [4] = read-out: IC50 or % Inhibition TF-VIIa (30 µM); cells without % sign: IC50
# [5] = read-out: IC50 or % Inhibition TF-VIIa (30 µM); cells given as a plain number (IC50)
# [6] = cells given as a plain number (IC50); read-out: IC50 or % Inhibition TF-VIIa (30 µM)
# T1 sequence (P00742 235-488 limits assumed): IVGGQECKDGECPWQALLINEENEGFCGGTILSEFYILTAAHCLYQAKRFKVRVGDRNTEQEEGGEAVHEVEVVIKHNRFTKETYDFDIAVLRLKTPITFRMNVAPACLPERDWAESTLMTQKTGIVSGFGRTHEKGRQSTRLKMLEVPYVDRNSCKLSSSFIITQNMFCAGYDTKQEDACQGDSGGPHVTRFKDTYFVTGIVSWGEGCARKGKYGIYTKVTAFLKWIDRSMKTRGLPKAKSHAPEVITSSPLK
# T1 sequence (P00742 41-179 limits assumed): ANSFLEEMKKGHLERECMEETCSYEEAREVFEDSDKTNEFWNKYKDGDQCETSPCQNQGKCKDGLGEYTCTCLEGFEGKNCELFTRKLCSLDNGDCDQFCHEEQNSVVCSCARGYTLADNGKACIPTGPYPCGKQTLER
smiles,measurement,setting,value
N=C(N)c1ccc(CNC(=O)Cn2c(-c3ccccc3)c(Cl)nc(NCCc3cccs3)c2=O)cc1 [1507-18],IC50,Human factor Xa [1]; [3],> 30 µM
CNc1cccc(-c2c(Cl)nc(NCCc3ccccc3)c(=O)n2CC(=O)NCc2ccc(C(=N)N)cc2)c1 [compound 95],IC50,Human factor Xa [1]; [3],> 30 µM
Nc1ccc(CNC(=O)Cn2c(Cc3ccccc3)c(Cl)nc(NCCc3ccccc3)c2=O)cn1 [Example 9],IC50 or % Inhibition Factor Xa (30 µM),Human factor Xa [1]; cells given as a plain number (IC50),>0 µM
CC(=O)Nc1cccc(-c2c(Cl)nc(NCCc3ccccc3)c(=O)n2CC(=O)NCc2ccc(C(=N)N)cc2)c1 [Example 100],IC50,Human factor Xa [1],> 30 µM
N=C(N)c1ccc(CNC(=O)Cn2c(-c3cccc(Cl)c3)c(Cl)nc(NCc3ccccc3)c2=O)cc1 [1471-25],IC50 or % Inhibition Factor Xa (30 µM),Human factor Xa [1]; % inhibition at 30 µM,31%
N=C(N)c1ccc(CNC(=O)Cn2c(-c3ccccc3)cnc(NS(=O)(=O)c3ccccc3)c2=O)cc1 [Example 105],IC50 or % Inhibition Factor Xa (30 µM),Human factor Xa [1]; % inhibition at 30 µM,5%
N=C(N)c1ccc(CNC(=O)Cn2c(-c3ccccc3)c(Cl)nc(NCCCN)c2=O)cc1 [Example 45],IC50 or % Inhibition Factor Xa (30 µM),Human factor Xa [1]; % inhibition at 30 µM,9%
CSc1ccc(N)cc1-c1c(Cl)nc(NC(C)C)c(=O)n1CC(=O)NCc1ccc(C(=N)N)cc1 [compound 76],IC50 or % Inhibition Factor Xa (30 µM),Human factor Xa [1]; % inhibition at 30 µM,0%
N=C(N)c1ccc(CNC(=O)Cn2c(-c3ccccc3)c(Cl)nc(N3CCC3)c2=O)cc1 [1522-28],IC50,Human factor Xa [1]; [3],> 30 µM
Nc1cccc(-c2c(Cl)nc(NC3CCC3)c(=O)n2CC(=O)NCCCc2ccnc(N)n2)c1 [Example 26],IC50 or % Inhibition Factor Xa (30 µM),Human factor Xa [1]; % inhibition at 30 µM,5%
N=C(N)c1ccc(CNC(=O)Cn2c(-c3ccccc3)c(Cl)nc(CN)c2=O)cc1 [Example 18],IC50 or % Inhibition Factor Xa (30 µM),Human factor Xa [1]; % inhibition at 30 µM,0%
Cc1c(Cl)nc(NCc2ccncc2)c(=O)n1CC(=O)NCCc1ccncc1 [Example E-0008],% Inhibition TF-VIIa (100 µM),TF-VIIa,0%
same,% Inhibition Factor Xa (100 µM),Human factor Xa [2],0%
CS(=O)(=O)Nc1cccc(-c2c(Cl)nc(NCCc3ccccc3)c(=O)n2CC(=O)NCc2ccc(C(=N)N)cc2)c1 [Example 101],IC50,Human factor Xa [1],> 30 µM
CC(C)CNc1nc(Cl)c(-c2cccc(N)c2)n(CC(=O)NCc2ccc(C(=N)N)cc2F)c1=O [1543-38],IC50,TF-VIIa; [4],0.09 µM
same,IC50 or % Inhibition Factor Xa (30 µM),Human factor Xa [2],14%
N=C(N)c1ccc(CNC(=O)Cn2c(-c3ccsc3)c(Cl)nc(NCCc3ccccc3)c2=O)cc1 [1517-13],IC50,TF-VIIa; [5],0.6 µM
same,IC50 or % Inhibition Factor Xa (30 µM),Human factor Xa [2],0%
CC(C)N(C)c1nc(Cl)c(-c2ccccc2)n(CC(=O)NCc2ccc(C(=N)N)cc2)c1=O [1517-31],IC50,TF-VIIa; [6],9.1 µM
same,IC50 or % Inhibition Factor Xa (30 µM),Human factor Xa [2],0%
N=C(N)c1ccc(CNC(=O)Cn2c(-c3ccccc3)c(Cl)nc(NCc3c(F)cccc3C(F)(F)F)c2=O)cc1 [1512-44],IC50 or % Inhibition TF-VIIa (30 µM),TF-VIIa,43%
same,IC50 or % Inhibition Factor Xa (30 µM),Human factor Xa [2],6%
N=C(N)c1ccc(CNC(=O)Cn2c(-c3ccccc3)c(Cl)nc(NCCCCN)c2=O)cc1 [Example 46],IC50 or % Inhibition Factor Xa (30 µM),Human factor Xa [1]; % inhibition at 30 µM,10%
COc1ccc(-c2c(Cl)nc(NCCN3CCOCC3)c(=O)n2CC(=O)NCc2ccc(C(=N)N)cc2)cc1 [1471-36],IC50 or % Inhibition TF-VIIa (30 µM),TF-VIIa,11%
same,IC50 or % Inhibition Factor Xa (30 µM),Human factor Xa [2],6%
Nc1n[nH]c2ccc(CNC(=O)Cn3c(-c4ccccc4)cnc(NCCc4ccccc4)c3=O)cc12 [Example 38],IC50,TF-VIIa; [5],0.9 µM
same,IC50 or % Inhibition Factor Xa (30 µM),Human factor Xa [2],22%
O=C(Cn1c(-c2ccccc2)c(Cl)nc(NCCc2ccc(Cl)cc2)c1=O)NCCc1ccncc1 [Example E-0012],% Inhibition TF-VIIa (100 µM),TF-VIIa,0%
same,% Inhibition Factor Xa (100 µM),Human factor Xa [2],0%
CC(C)Nc1nc(Cl)c(-c2cccc([N+](=O)[O-])c2)n(CC(=O)NCc2ccc(C#N)cc2)c1=O [Example 59],IC50 or % Inhibition Factor Xa (30 µM),Human factor Xa [1]; % inhibition at 30 µM,2%
N=C(N)c1ccc(CNC(=O)Cn2c(-c3ccccc3)c(Cl)nc(NC3CCc4ccccc43)c2=O)cc1 (centres unmarked) [1507-02],IC50,TF-VIIa; [5],9.4 µM
same,IC50 or % Inhibition Factor Xa (30 µM),Human factor Xa [2],9%
CC(C)Nc1nc(Cl)c(-c2cccc(N)c2)n(CC(=O)NCc2ccc(C(=N)N)c(F)c2)c1=O [Example 42],IC50,TF-VIIa; [5],0.5 µM
same,IC50 or % Inhibition Factor Xa (30 µM),Human factor Xa [2],0%
N=C(N)c1ccc(CNC(=O)C(Cc2ccccc2)n2c(-c3ccccc3)c(Cl)nc(NCCc3ccccc3)c2=O)cc1 (centres unmarked) [1517-14],IC50 or % Inhibition TF-VIIa (30 µM),TF-VIIa,30%
same,IC50 or % Inhibition Factor Xa (30 µM),Human factor Xa [2],0%
N=C(N)c1ccc(CNC(=O)Cn2c(-c3ccccc3)c(Cl)nc(NCc3ccccc3OC(F)(F)F)c2=O)cc1 [1512-42],IC50,TF-VIIa; [5],25 µM
same,IC50 or % Inhibition Factor Xa (30 µM),Human factor Xa [2],1%
N=C(N)c1ccc(CNC(=O)Cn2c(-c3ccccc3)c(Cl)nc(NCCN)c2=O)cc1 [Example 44],IC50 or % Inhibition Factor Xa (30 µM),Human factor Xa [1]; % inhibition at 30 µM,4%
N=C(N)c1ccc(CNC(=O)Cn2c(-c3cccc(N)c3)c(Cl)nc(NCCCN3CCCC3)c2=O)cc1 [1543-27],IC50,TF-VIIa; [4],0.38 µM
same,IC50 or % Inhibition Factor Xa (30 µM),Human factor Xa [2],27%
N=C(N)c1ccc(CNC(=O)Cn2c(-c3ccccc3)c(Cl)nc(NCc3cccc(OC(F)(F)F)c3)c2=O)cc1 [1512-40],IC50 or % Inhibition TF-VIIa (30 µM),TF-VIIa,40%
same,IC50 or % Inhibition Factor Xa (30 µM),Human factor Xa [2],3%
N=C(N)c1ccc(CNC(=O)Cn2c(-c3ccc4c(c3)OCO4)c(Cl)nc(NCCc3ccccc3)c2=O)cc1 [1471-47],IC50,TF-VIIa; [5],12.6 µM
same,IC50 or % Inhibition Factor Xa (30 µM),Human factor Xa [2],22%
N=C(N)c1ccc(CNC(=O)Cn2c(-c3cccc(N)c3)c(Cl)nc(NC3CCC3)c2=O)cc1F [Example 40],IC50,TF-VIIa; [6],0.06 µM
same,IC50 or % Inhibition Factor Xa (30 µM),Human factor Xa [2],0%
N=C(N)c1ccc(CNC(=O)Cn2c(-c3ccccc3)c(Cl)nc(NCCC3=CCCCC3)c2=O)cc1 [1507-17],IC50,TF-VIIa; [5],27.4 µM
same,IC50 or % Inhibition Factor Xa (30 µM),Human factor Xa [2],16%
O=C(Cn1c(CCc2ccccc2)c(Cl)nc(NCCc2cccnc2)c1=O)NCCc1ccncc1 [Example E-0069],% Inhibition TF-VIIa (100 µM),TF-VIIa,0%
same,% Inhibition Factor Xa (100 µM),Human factor Xa [2],0%
O=C(Cn1c(CCc2ccccc2)c(Cl)nc(NCCN2CCOCC2)c1=O)NCCc1ccncc1 [Example E-0071],% Inhibition TF-VIIa (100 µM),TF-VIIa,0%
same,% Inhibition Factor Xa (100 µM),Human factor Xa [2],0%
O=C(Cn1c(-c2ccc3c(c2)OCO3)c(Cl)nc(NCCN2CCOCC2)c1=O)NCCc1ccncc1 [Example E-0047],% Inhibition TF-VIIa (100 µM),TF-VIIa,0%
same,% Inhibition Factor Xa (100 µM),Human factor Xa [2],0%
Cc1c(Cl)nc(NCCc2ccccc2)c(=O)n1CC(=O)NCCc1ccncc1 [Example E-0002],% Inhibition TF-VIIa (100 µM),TF-VIIa,0%
same,% Inhibition Factor Xa (100 µM),Human factor Xa [2],0%
CCc1c(Cl)nc(NCCc2ccc(Cl)cc2)c(=O)n1CC(=O)NCc1ccc(C(=N)N)cc1 [1471-58],IC50,TF-VIIa; [5],12.4 µM
same,IC50 or % Inhibition Factor Xa (30 µM),Human factor Xa [2],0%
O=C(Cn1c(-c2ccccc2)c(Cl)nc(NCCc2cccc(Cl)c2)c1=O)NCCc1ccncc1 [Example E-0011],% Inhibition TF-VIIa (100 µM),TF-VIIa,0%
same,% Inhibition Factor Xa (100 µM),Human factor Xa [2],0%
CC(C)Nc1nc(Cl)c(-c2cccc(N)c2)n(CC(=O)NCCc2ccc(C(=N)N)cc2)c1=O [Example 62],IC50,TF-VIIa; [5],5.6 µM
same,IC50 or % Inhibition Factor Xa (30 µM),Human factor Xa [2],10%
O=C(Cn1c(Cc2ccccc2)c(Cl)nc(NCCN2CCOCC2)c1=O)NCCc1ccncc1 [Example E-0063],% Inhibition TF-VIIa (100 µM),TF-VIIa,0%
same,% Inhibition Factor Xa (100 µM),Human factor Xa [2],0%
N=C(N)c1ccc(CNC(=O)Cn2c(-c3ccc(-c4ccccc4)cc3)c(Cl)nc(NCCc3ccccc3)c2=O)cc1 [1471-71],IC50 or % Inhibition TF-VIIa (30 µM),TF-VIIa,6%
same,IC50 or % Inhibition Factor Xa (30 µM),Human factor Xa [2],0%
CSCC(C(=O)NCc1ccc(C(=N)N)cc1)n1c(-c2ccccc2)c(Cl)nc(NC2CCC2)c1=O (centres unmarked) [1517-10],IC50,TF-VIIa; [5],2 µM
same,IC50 or % Inhibition Factor Xa (30 µM),Human factor Xa [2],0%
N=C(N)c1ccc(CNC(=O)Cn2c(-c3cccc(Cl)c3)c(Cl)nc(NCCN3CCOCC3)c2=O)cc1 [1471-28],IC50,TF-VIIa; [5],7.22 µM
same,IC50 or % Inhibition Factor Xa (30 µM),Human factor Xa [2],8%
O=C(Cn1c(-c2ccc3c(c2)OCO3)c(Cl)nc(NCCc2cccnc2)c1=O)NCCc1ccncc1 [Example E-0045],% Inhibition TF-VIIa (100 µM),TF-VIIa,0%
same,% Inhibition Factor Xa (100 µM),Human factor Xa [2],0%
CC1CCCC(Nc2nc(Cl)c(-c3ccccc3)n(CC(=O)NCc3ccc(C(=N)N)cc3)c2=O)C1C (centres unmarked) [1512-23],IC50,TF-VIIa; [5],14.6 µM
same,IC50 or % Inhibition Factor Xa (30 µM),Human factor Xa [2],6%
O=C(Cn1c(Cc2ccccc2)c(Cl)nc(NCc2ccncc2)c1=O)NCCc1ccncc1 [Example E-0064],% Inhibition TF-VIIa (100 µM),TF-VIIa,0%
same,% Inhibition Factor Xa (100 µM),Human factor Xa [2],0%
O=C(Cn1c(CCc2ccccc2)c(Cl)nc(NCCc2ccccc2)c1=O)NCCc1ccncc1 [Example E-0066],% Inhibition TF-VIIa (100 µM),TF-VIIa,0%
same,% Inhibition Factor Xa (100 µM),Human factor Xa [2],0%
O=C(Cn1c(Cc2ccccc2)c(Cl)nc(NCCc2ccncc2)c1=O)NCCc1ccncc1 [Example E-0062],% Inhibition TF-VIIa (100 µM),TF-VIIa,0%
same,% Inhibition Factor Xa (100 µM),Human factor Xa [2],0%
O=C(Cn1c(-c2ccccc2)c(Cl)nc(NCCN2CCOCC2)c1=O)NCCc1ccncc1 [Example E-0015],% Inhibition TF-VIIa (100 µM),TF-VIIa,0%
same,% Inhibition Factor Xa (100 µM),Human factor Xa [2],0%
